Laboratory results reported in US20250230193A1, “CYCLIC COMPOUND HAVING SELECTIVE KRAS INHIBITORY EFFECT ON HRAS AND NRAS” (CHUGAI SEIYAKU KABUSHIKI KAISHA, priority 2022, published 2025).
*1 amine or outer side, *2 acyl side, *3 side chain or, on linkers, in order; H or OH if unused. Where a SMILES comes first, the peptide text is derived from it. Bridges are numbered along the chain shown (N, C = ends). [ ]: non-standard residue; d: D form. hPhe(3,5-F2-4-CF3) = N[C@@H](CCc1cc(F)c(C(F)(F)F)c(F)c1)C(=O)O; NPrPhe(4-CF3) = CCCN[C@@H](Cc1ccc(C(F)(F)F)cc1)C(=O)O; NMeGly(cPent) = CN[C@H](C(=O)O)C1CCCC1; X9 = C[C@@](N[*:1])(C(=O)[*:2])C1CC1; X13 = CCC[C@](C)(N[*:1])C(=O)[*:2]; αMeCha = C[C@](N)(CC1CCCCC1)C(=O)O; αMeI = CC[C@H](C)[C@](C)(N)C(=O)O; NMeD = CN[C@@H](CC(=O)O)C(=O)O; NMeL = CN[C@@H](CC(C)C)C(=O)O; αMeL = CC(C)C[C@](C)(N)C(=O)O; αMeV = CC(C)[C@](C)(N)C(=O)O; Sar = CNCC(=O)O

Tests used:
[1] = target: GDP-bound NRAS wild-type protein (Homo sapiens, UniProt P01111); assay: Binding to NRAS by surface plasmon resonance (SPR), Single Cycle Kinetics; conditions: KD ratio NRAS/KRAS, SPR
[2] = target: GDP-bound HRAS wild-type protein (Homo sapiens, UniProt P01112); assay: Binding to HRAS by surface plasmon resonance (SPR), Single Cycle Kinetics; conditions: KD ratio HRAS/KRAS, SPR
Sequence of GDP-bound HRAS wild-type protein (P01112 whole entry): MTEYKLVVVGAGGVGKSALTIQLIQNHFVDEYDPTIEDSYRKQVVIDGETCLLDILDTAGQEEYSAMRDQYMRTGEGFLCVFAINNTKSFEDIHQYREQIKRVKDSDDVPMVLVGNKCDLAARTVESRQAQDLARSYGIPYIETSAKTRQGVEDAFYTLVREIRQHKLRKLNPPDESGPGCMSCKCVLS

Sequence of GDP-bound NRAS wild-type protein (P01111 whole entry): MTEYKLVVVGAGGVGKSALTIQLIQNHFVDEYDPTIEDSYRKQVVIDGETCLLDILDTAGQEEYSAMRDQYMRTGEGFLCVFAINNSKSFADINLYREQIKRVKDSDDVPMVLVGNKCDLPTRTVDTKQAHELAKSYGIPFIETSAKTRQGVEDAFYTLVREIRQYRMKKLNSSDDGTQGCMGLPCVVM

Row | Compound | NRAS/KRAS (ratio of KD value with respect to GDP-bound NRAS wild-type protein to KD value with respect to KRAS) [1] | HRAS/KRAS (ratio of KD value with respect to GDP-bound HRAS wild-type protein to KD value with respect to KRAS) [2]
1 | CCO[C@@H]1C[C@H]2C(=O)NC3(CC=CC3)C(=O)N(C)[C@@H](C3CCCC3)C(=O)N(C)[C@H](C(=O)N3CCOCC3)CC(=O)N(C)[C@@H](CC(C)C)C(=O)N[C@@H]([C@@H](C)CC)C(=O)N(C)CC(=O)N(C)[C@H]3CCCCCN(C3=O)[C@@H](Cc3ccc(C(F)(F)F)cc3)C(=O)N(C)CC(=O)N[C@@H](CCc3cc(F)c(C(F)(F)F)c(F)c3)C(=O)N2C1 [PP0727] | B (a compound having 3 or more and less than 10 is denoted as B) | B (a compound having 3 or more and less than 10 is denoted as B)
2 | CCO[C@@H]1C[C@H]2C(=O)NC3(CCC(F)(F)CC3)C(=O)N(C)[C@@H](C3CCCC3)C(=O)N(C)[C@H](C(=O)N3CCOCC3)CC(=O)N(C)[C@@H](CC(C)C)C(=O)N[C@@H]([C@@H](C)CC)C(=O)N(C)CC(=O)N(C)[C@H]3CCCCCN(C3=O)[C@@H](Cc3ccc(C(F)(F)F)cc3)C(=O)N(C)CC(=O)N[C@@H](CCc3cc(F)c(C(F)(F)F)c(F)c3)C(=O)N2C1 [PP0728] | B (a compound having 3 or more and less than 10 is denoted as B) | B (a compound having 3 or more and less than 10 is denoted as B)
3 | CCO[C@@H]1C[C@H]2C(=O)NC3(CCC3)C(=O)N(C)[C@@H](C3CCCC3)C(=O)N(C)[C@H](C(=O)N(C)C)CC(=O)N(C)[C@@H](C)C(=O)N[C@@H]([C@H](C)CC)C(=O)N(C)CC(=O)N(C)[C@H]3CCCCCN(C3=O)[C@@H](Cc3ccc(C(F)(F)F)cc3)C(=O)N(C)CC(=O)N[C@@H](CCc3cc(F)c(C(F)(F)F)c(F)c3)C(=O)N2C1 [PP0729] | B (a compound having 3 or more and less than 10 is denoted as B) | B (a compound having 3 or more and less than 10 is denoted as B)
4 | CCO[C@@H]1C[C@H]2C(=O)NC3(CCC3)C(=O)N(C)[C@@H](C3CCCC3)C(=O)N(C)[C@H](C(=O)N(C)C)CC(=O)N(C)[C@@H](C)C(=O)N[C@@H]([C@H](C)CC)C(=O)N(C)CC(=O)N(C)[C@H]3CCCCN(C3=O)[C@@H](Cc3ccc(C(F)(F)F)cc3)C(=O)N(C)CC(=O)N[C@@H](CCc3cc(F)c(C(F)(F)F)c(F)c3)C(=O)N2C1 [PP0730] | C (A compound having a KD ratio of 0.1 or more and less than 3 is denoted as C) | C (A compound having a KD ratio of 0.1 or more and less than 3 is denoted as C)
5 | CC[C@H](C)[C@@H]1NC(=O)[C@H](CC)N(C)C(=O)C[C@@H](C(=O)N(C)C)N(C)C(=O)[C@H](C2CCCC2)N(C)C(=O)C2(CCC2)NC(=O)[C@@H]2C[C@H](N3CCC(F)(F)CC3)CN2C(=O)[C@H](CCc2cc(F)c(C(F)(F)F)c(F)c2)NC(=O)CN(C)C(=O)[C@H](Cc2ccc(C(F)(F)F)cc2)N2CCCCC[C@@H](C2=O)N(C)C(=O)CN(C)C1=O [PP0731] | B (a compound having 3 or more and less than 10 is denoted as B) | B (a compound having 3 or more and less than 10 is denoted as B)
6 | CC[C@H](C)[C@@H]1NC(=O)[C@H](CC)N(C)C(=O)C[C@@H](C(=O)N(C)C)N(C)C(=O)[C@H](C2CCCC2)N(C)C(=O)C2(CCC2)NC(=O)[C@@H]2C[C@H](N3CCC(F)(F)CC3)CN2C(=O)[C@H](CCc2cc(F)c(C(F)(F)F)c(F)c2)NC(=O)CN(C)C(=O)[C@H](Cc2ccc(C(F)(F)F)cc2)N2CCCC[C@@H](C2=O)N(C)C(=O)CN(C)C1=O [PP0732] | C (A compound having a KD ratio of 0.1 or more and less than 3 is denoted as C) | B (a compound having 3 or more and less than 10 is denoted as B)
7 | CC[C@H](C)[C@@H]1NC(=O)[C@H](CC)N(C)C(=O)C[C@@H](C(=O)N(C)C)N(CC)C(=O)[C@H](C2CCCC2)N(C)C(=O)C2(CCC2)NC(=O)[C@@H]2C[C@@H](N3CCC(F)(F)CC3)CN2C(=O)[C@H](CCc2cc(F)c(C(F)(F)F)c(F)c2)NC(=O)CN(C)C(=O)[C@H](Cc2ccc(C(F)(F)F)cc2)N2CCCC[C@@H](C2=O)N(C)C(=O)CN(C)C1=O [PP0733] | B (a compound having 3 or more and less than 10 is denoted as B) | B (a compound having 3 or more and less than 10 is denoted as B)
8 | CCCN1C(=O)CN(C)C(=O)CN(C)C(=O)[C@H]([C@@H](C)CC)NC(=O)[C@H](CC(C)C)N(C)C(=O)C[C@@H](C(=O)N(C)C)N(C)C(=O)[C@H](C2CCCC2)N(C)C(=O)[C@](C)(C2CC2)NC(=O)[C@@H]2CCCN2C(=O)[C@H](CCc2cc(F)c(C(F)(F)F)c(F)c2)NC(=O)CN(C)C(=O)[C@@H]1Cc1ccc(C(F)(F)F)cc1 [PP0734] ([NMeL]I[Sar][Sar][NPrPhe(4-CF3)][Sar][hPhe(3,5-F2-4-CF3)]P[X9][NMeGly(cPent)][NMeD]-NMe2; lactam N-11) | B (a compound having 3 or more and less than 10 is denoted as B) | C (A compound having a KD ratio of 0.1 or more and less than 3 is denoted as C)
9 | CCCN1C(=O)CN(C)C(=O)CN(C)C(=O)[C@H]([C@@H](C)CC)NC(=O)[C@H](CC(C)C)N(C)C(=O)C[C@@H](C(=O)N(C)C)N(C)C(=O)[C@H](C2CCCC2)N(C)C(=O)[C@](C)(C(C)C)NC(=O)[C@@H]2CCCN2C(=O)[C@H](CCc2cc(F)c(C(F)(F)F)c(F)c2)NC(=O)CN(C)C(=O)[C@@H]1Cc1ccc(C(F)(F)F)cc1 [PP0735] ([NMeL]I[Sar][Sar][NPrPhe(4-CF3)][Sar][hPhe(3,5-F2-4-CF3)]P[αMeV][NMeGly(cPent)][NMeD]-NMe2; lactam N-11) | B (a compound having 3 or more and less than 10 is denoted as B) | C (A compound having a KD ratio of 0.1 or more and less than 3 is denoted as C)
10 | CCCN1C(=O)CN(C)C(=O)CN(C)C(=O)[C@H]([C@@H](C)CC)NC(=O)[C@H](CC(C)C)N(C)C(=O)C[C@@H](C(=O)N(C)C)N(C)C(=O)[C@H](C2CCCC2)N(C)C(=O)[C@](C)([C@@H](C)CC)NC(=O)[C@@H]2CCCN2C(=O)[C@H](CCc2cc(F)c(C(F)(F)F)c(F)c2)NC(=O)CN(C)C(=O)[C@@H]1Cc1ccc(C(F)(F)F)cc1 [PP0736] ([NMeL]I[Sar][Sar][NPrPhe(4-CF3)][Sar][hPhe(3,5-F2-4-CF3)]P[αMeI][NMeGly(cPent)][NMeD]-NMe2; lactam N-11) | B (a compound having 3 or more and less than 10 is denoted as B) | C (A compound having a KD ratio of 0.1 or more and less than 3 is denoted as C)
11 | CCCN1C(=O)CN(C)C(=O)CN(C)C(=O)[C@H]([C@@H](C)CC)NC(=O)[C@H](CC(C)C)N(C)C(=O)C[C@@H](C(=O)N(C)C)N(C)C(=O)[C@H](C2CCCC2)N(C)C(=O)[C@](C)(CCC)NC(=O)[C@@H]2CCCN2C(=O)[C@H](CCc2cc(F)c(C(F)(F)F)c(F)c2)NC(=O)CN(C)C(=O)[C@@H]1Cc1ccc(C(F)(F)F)cc1 [PP0737] ([NMeL]I[Sar][Sar][NPrPhe(4-CF3)][Sar][hPhe(3,5-F2-4-CF3)]P[X13][NMeGly(cPent)][NMeD]-NMe2; lactam N-11) | B (a compound having 3 or more and less than 10 is denoted as B) | C (A compound having a KD ratio of 0.1 or more and less than 3 is denoted as C)
12 | CCCN1C(=O)CN(C)C(=O)CN(C)C(=O)[C@H]([C@@H](C)CC)NC(=O)[C@H](CC(C)C)N(C)C(=O)C[C@@H](C(=O)N(C)C)N(C)C(=O)[C@H](C2CCCC2)N(C)C(=O)[C@](C)(CC(C)C)NC(=O)[C@@H]2CCCN2C(=O)[C@H](CCc2cc(F)c(C(F)(F)F)c(F)c2)NC(=O)CN(C)C(=O)[C@@H]1Cc1ccc(C(F)(F)F)cc1 [PP0738] ([NMeL]I[Sar][Sar][NPrPhe(4-CF3)][Sar][hPhe(3,5-F2-4-CF3)]P[αMeL][NMeGly(cPent)][NMeD]-NMe2; lactam N-11) | B (a compound having 3 or more and less than 10 is denoted as B) | B (a compound having 3 or more and less than 10 is denoted as B)
13 | CCCN1C(=O)CN(C)C(=O)CN(C)C(=O)[C@H]([C@@H](C)CC)NC(=O)[C@H](CC(C)C)N(C)C(=O)C[C@@H](C(=O)N(C)C)N(C)C(=O)[C@H](C2CCCC2)N(C)C(=O)[C@](C)(CC2CCCCC2)NC(=O)[C@@H]2CCCN2C(=O)[C@H](CCc2cc(F)c(C(F)(F)F)c(F)c2)NC(=O)CN(C)C(=O)[C@@H]1Cc1ccc(C(F)(F)F)cc1 [PP0739] ([NMeL]I[Sar][Sar][NPrPhe(4-CF3)][Sar][hPhe(3,5-F2-4-CF3)]P[αMeCha][NMeGly(cPent)][NMeD]-NMe2; lactam N-11) | B (a compound having 3 or more and less than 10 is denoted as B) | C (A compound having a KD ratio of 0.1 or more and less than 3 is denoted as C)
